Reference: patent US20260216238A1, “TETRATHIOMOLYBDIC ACID FOR USE IN TREATING COPPER METABOLISM-ASSOCIATED DISEASES OR DISORDERS (WILSON DISEASE)” (Alexion Pharmaceuticals, Inc., priority 2023, published 2026)

System: patients with Wilson disease (WD)
Test: UWDRS Part III total score, functional subscale and individual items (neurological examination)
Assay type: in vivo, human
Details: for UWDRS Part III (0-175) change from baseline, Mean (SD) / UWDRS Part III Functional Subscale (0-10) change from baseline, Mean (SD): pooled Studies 301 and 201
Procedure: The UWDRS scoring system was developed specifically for the motor and movement disorders associated with chronic copper neurotoxicity in WD. Some individual items/subscales of the UWDRS Part III (arising from a chair, gait, handwriting, and speech) in addition to the UWDRS Parts I, II, and III overall, were assessed to further define the range of burdensome signs and symptoms of WD, so as to further understand the assessment of treatment effects on patients with WD. The UWDRS scores for consciousness (Part I) and abnormal neurologic examination findings (Part III) will be determined by a trained neurologist rater who is blinded to study treatment randomization. These scores were used to provide a rigorous dataset for evaluating changes from baseline.
Unified Wilson Disease Rating Scale (Parts I, II, and III): The UWDRS is a clinical rating scale designed to evaluate the neurological manifestations of WD that generally can be divided into 3 movement disorder syndromes: dystonic, ataxic, and Parkinsonian syndrome. The UWDRS comprises 3 parts: UWDRS Part I (level of consciousness, item 1), UWDRS Part II (a patient-reported review of daily activity items [disability], items 2 to 11), and UWDRS Part III (a detailed neurological examination, items 12 to 34).
The UWDRS Part I and Part III were assessed by a neurologist who is blinded to the treatment randomization, while UWDRS Part II may be reported to a non-blinded member of the study team by the patient, family member, or caregiver. The UWDRS has not been formally evaluated in adolescents. However, the components of Part I (level of consciousness), Part II (patient or caregiver-reported disability) and Part III (neurologic examination findings) were not fundamentally different between adults and adolescents. Patients aged 12 years and older were expected to be able to comply with UWDRS assessments.
Pooled results from all such participants will be integrated together into one timeline to allow analyses of changes in UWDRS, long-term copper control, and long-term safety laboratory data.
Endpoints (directly measured non-ceruloplasmin-bound copper [dNCC], UWDRS III (rater blinded) total and individual item scores, Clinical Global Impression-Improvement [CGI-I]) were evaluated at baseline (BL) and Week 48 (W48). Normalization (score decrease to 0), improvement (≥1 point decrease), stability (no change), or worsening (≥1 point increase) of total and individual UWDRS III item scores were evaluated at W48.

[1] = Subpopulation E (incomplete or intolerant responders), Week 48, MMRM
[2] = Subpopulation E (incomplete or intolerant responders), Week 48, TTM N=79, SoC N=38

For bis-choline tetrathiomolybdate [TTM], which “UWDRS Part III score change (mean)” value (0-48W, symptomatic patients) is on record?
The value was −2.91.

And the “UWDRS symptom: Arising from chair” value (BL)?
Its value is 85.

And the “UWDRS symptom: Arm and hand Dystonia” value (BL)?
Its value is 64.

What about the “UWDRS symptom: Cervical Dystonia” value (BL) of the same substance?
The value was 74.

What about the “UWDRS symptom: Chorea” value (BL) of the same substance?
Its value is 90.

And the “UWDRS symptom: Facial Expression” value (BL)?
The value was 57.

What about the “UWDRS symptom: Finger Taps” value (BL) of the same substance?
The value was 44.

What about the “UWDRS symptom: Finger to Nose” value (BL) of the same substance?
The value was 67.

And the “UWDRS symptom: Gait” value (BL)?
The value was 59.

What about the “UWDRS symptom: Handwriting” value (BL) of the same substance?
Its value is 55.

And the “UWDRS symptom: Head Tremor” value (BL)?
Its value is 84.

And the “UWDRS symptom: Involuntary Crying” value (BL)?
The value was 99.

And the “UWDRS symptom: Jaw Tremor” value (BL)?
The value was 99.

What about the “UWDRS symptom: Leg Ability” value (BL) of the same substance?
Its value is 62.

And the “UWDRS symptom: Oculomotor” value (BL)?
Its value is 89.

What about the “UWDRS symptom: Postural Arm Tremor” value (BL) of the same substance?
Its value is 49.

What about the “UWDRS symptom: Postural Leg Tremor” value (BL) of the same substance?
The value was 68.

And the “UWDRS symptom: Posture” value (BL)?
The value was 67.

What about the “UWDRS symptom: Pyramidal Signs” value (BL) of the same substance?
Its value is 89.

And the “UWDRS symptom: RAM of Hands” value (BL)?
The value was 48.

What about the “UWDRS symptom: Rigidity” value (BL) of the same substance?
Its value is 58.

What about the “UWDRS symptom: Speech” value (BL) of the same substance?
The value was 44.

What about the “UWDRS symptom: Stereotyped Actions” value (BL) of the same substance?
The value was 93.

And the “UWDRS symptom: Tremor at rest” value (BL)?
Its value is 75.

And the “UWDRS symptom: Wing-beating tremor” value (BL)?
The value was 64.

What about the “UWDRS-III, observed value, Mean (SD)” value (Baseline, N=220) of the same substance?
Its value is 15.43 (19.833).

And the “UWDRS Part III (0-175), Change from Baseline at 48 weeks, LSM” value (Study 301 Full Analysis Set)?
Its value is −0.60.

What about the “UWDRS Part III (0-175), Change from Baseline at 48 weeks, Mean” value (Study 301 Full Analysis Set) of the same substance?
Its value is −2.20.

And the “UWDRS Part III functional subscale (0-10), Change from Baseline at 48 weeks, LSM” value (Study 301 Full Analysis Set)?
The value was 0.001.

What about the “UWDRS Part III functional subscale (0-10), Change from Baseline at 48 weeks, Mean” value (Study 301 Full Analysis Set) of the same substance?
The value was −0.147.

And the “UWDRS Part III-arising from chair (0-4), Change from Baseline at 48 weeks, LSM” value (Study 301 Full Analysis Set)?
The value was 0.0.

And the “UWDRS Part III-arising from chair (0-4), Change from Baseline at 48 weeks, Mean” value (Study 301 Full Analysis Set)?
Its value is 0.0.

What about the “UWDRS Part III-gait (0-10), Change from Baseline at 48 weeks, LSM” value (Study 301 Full Analysis Set) of the same substance?
The value was 0.06.

What about the “UWDRS Part III-gait (0-10), Change from Baseline at 48 weeks, Mean” value (Study 301 Full Analysis Set) of the same substance?
Its value is −0.06.

And the “UWDRS Part III-handwriting (0-4), Change from Baseline at 48 weeks, LSM” value (Study 301 Full Analysis Set)?
The value was −0.1.

And the “UWDRS Part III-handwriting (0-4), Change from Baseline at 48 weeks, Mean” value (Study 301 Full Analysis Set)?
Its value is −0.1.

And the “UWDRS Part III-speech (0-4), Change from Baseline at 48 weeks, LSM” value (Study 301 Full Analysis Set)?
The value was 0.0.

What about the “UWDRS Part III-speech (0-4), Change from Baseline at 48 weeks, Mean” value (Study 301 Full Analysis Set) of the same substance?
Its value is −0.1.

What about the “UWDRS Part III change from baseline, LSM” value [1] of the same substance?
Its value is −2.52.

And the “UWDRS Part III change from baseline, LSM Diff (TTM vs SoC)” value [1]?
The value was −0.53.

What about the “UWDRS Part III change from baseline, Mean” value [2] of the same substance?
The value was −2.64.

What about the “UWDRS Part III change from baseline, Median” value [2] of the same substance?
Its value is −1.00.

And the “UWDRS Part III, Change from Baseline, Max” value [2]?
The value was 31.0.

What about the “UWDRS Part III, Change from Baseline, Min” value [2] of the same substance?
Its value is −28.0,.

What about the “UWDRS Part III, Change from Baseline, Q1” value [2] of the same substance?
The value was −6.00,.

And the “UWDRS Part III, Change from Baseline, Q3” value [2]?
The value was 0.00.

And the “UWDRS-III change from baseline, Mean (SD)” value (from here on “UWDRS-III change … (SD)”) (TTM exposure 4 weeks, N=215)?
Its value is −0.72 (6.701).

What about the “UWDRS Part III (0-175) change from baseline, Mean (SD)” value (shortened to “UWDRS Part III (0-175) change … (SD)”) (TTM exposure 4 weeks) of the same substance?
The value was −0.72 (6.701).

And the “UWDRS Part III Functional Subscale (0-10) change from baseline, Mean (SD)” value (TTM exposure 4 weeks)?
Its value is −0.072 (0.6009).

And the “UWDRS-III change … (SD)” value (TTM exposure 12 weeks, N=204)?
The value was −1.11 (7.065).

And the “UWDRS Part III (0-175) change … (SD)” value (TTM exposure 12 weeks)?
Its value is −1.11 (7.065).

What about the “UWDRS Part III Functional Subscale (0-10) change from baseline, Mean (SD)” value (TTM exposure 12 weeks) of the same substance?
The value was −0.137 (0.7864).

What about the “UWDRS-III change … (SD)” value (TTM exposure 24 weeks, N=182) of the same substance?
The value was −0.97 (8.447).

What about the “UWDRS Part III (0-175) change … (SD)” value (TTM exposure 24 weeks) of the same substance?
Its value is −0.97 (8.447).

What about the “UWDRS Part III Functional Subscale (0-10) change from baseline, Mean (SD)” value (TTM exposure 24 weeks) of the same substance?
The value was −0.157 (0.9091).

What about the “UWDRS-III change … (SD)” value (TTM exposure 36 weeks, N=156) of the same substance?
The value was −2.38 (8.581).

What about the “UWDRS Part III (0-175) change … (SD)” value (TTM exposure 36 weeks) of the same substance?
The value was −2.38 (8.581).

And the “UWDRS Part III Functional Subscale (0-10) change from baseline, Mean (SD)” value (TTM exposure 36 weeks)?
Its value is −0.286 (0.9929).

And the “UWDRS-III change … (SD)” value (TTM exposure 48 weeks, N=156)?
The value was −3.37 (9.778).

What about the “UWDRS Part III (0-175) change … (SD)” value (TTM exposure 48 weeks) of the same substance?
Its value is −3.37 (9.778).

And the “UWDRS Part III Functional Subscale (0-10) change from baseline, Mean (SD)” value (TTM exposure 48 weeks)?
The value was −0.345 (1.0940).

What about the “UWDRS-III change … (SD)” value (TTM exposure 60 weeks, N=141) of the same substance?
The value was −2.00 (6.40).

And the “UWDRS Part III (0-175) change … (SD)” value (TTM exposure 60 weeks)?
The value was −2.00 (6.40).

And the “UWDRS Part III Functional Subscale (0-10) change from baseline, Mean (SD)” value (TTM exposure 60 weeks)?
Its value is −0.422 (1.0814).

What about the “UWDRS-III change … (SD)” value (TTM exposure 72 weeks, N=125) of the same substance?
Its value is −4.93 (11.682).

And the “UWDRS Part III (0-175) change … (SD)” value (TTM exposure 72 weeks)?
The value was −4.93 (11.682).

And the “UWDRS Part III Functional Subscale (0-10) change from baseline, Mean (SD)” value (TTM exposure 72 weeks)?
The value was −0.494 (1.2826).

And the “UWDRS-III change … (SD)” value (TTM exposure 96 weeks, N=66)?
Its value is −7.95 (14.078).

And the “UWDRS Part III (0-175) change … (SD)” value (TTM exposure 96 weeks)?
The value was −7.95 (14.078).

And the “UWDRS Part III Functional Subscale (0-10) change from baseline, Mean (SD)” value (TTM exposure 96 weeks)?
Its value is −0.900 (1.5193).

What about the “UWDRS-III change … (SD)” value (TTM exposure 120 weeks, N=50) of the same substance?
Its value is −8.92 (15.045).

And the “UWDRS Part III (0-175) change … (SD)” value (TTM exposure 120 weeks)?
The value was −8.92 (15.045).

And the “UWDRS Part III Functional Subscale (0-10) change from baseline, Mean (SD)” value (TTM exposure 120 weeks)?
The value was −0.946 (1.7746).

And the “UWDRS-III change … (SD)” value (TTM exposure 144 weeks, N=42)?
Its value is −9.78 (15.423).

And the “UWDRS Part III (0-175) change … (SD)” value (TTM exposure 144 weeks)?
Its value is −9.78 (15.423).
